The source of these data is ChEMBL document CHEMBL4138175, “Newly designed organotin(IV) carboxylates with peptide linkage: Synthesis, structural elucidation, physicochemical characterizations and pharmacological investigations” (Eur J Med Chem, 2018).

In assay [1] the test system is NCI-H157. Nature of the assay: Cytotoxicity against human NCI-H157 cells at 100 uM after 48 hrs by sulforhodamine B assay. Format: functional. On the technique in general: The SRB assay estimates cell density from bound dye.
Assay [2] deals with NCI-H157. The assay is described as follows: Cytotoxicity against human NCI-H157 cells at 10 uM after 48 hrs by sulforhodamine B assay. Format: functional.
Assay [3] has as its system NCI-H157. Nature of the assay: Cytotoxicity against human NCI-H157 cells at 1 uM after 48 hrs by sulforhodamine B assay. Format: functional.
Assay [4] deals with NCI-H157. Nature of the assay: Cytotoxicity against human NCI-H157 cells at 0.1 uM after 48 hrs by sulforhodamine B assay. Format: functional.
The subject of assay [5] is Leishmania major. The assay is described as follows: Antileishmanial activity against Leishmania major promastigotes at 100 uM after 72 hrs by MTT assay relative to control. Format: functional. On the technique in general: Tetrazolium assays rely on reduction of a dye to a coloured formazan, in cell work by metabolically active cells.
For assay [6], the system named is Leishmania major. Nature of the assay: Antileishmanial activity against Leishmania major promastigotes at 10 uM after 72 hrs by MTT assay relative to control. Format: functional.
Assay [7] relates to Leishmania major. The assay is described as follows: Antileishmanial activity against Leishmania major promastigotes at 1 uM after 72 hrs by MTT assay relative to control. Format: functional.
The subject of assay [8] is Leishmania major. Nature of the assay: Antileishmanial activity against Leishmania major promastigotes at 0.1 uM after 72 hrs by MTT assay relative to control. Format: functional.
For assay [9], the system named is Klebsiella pneumoniae. The assay is described as follows: Antibacterial activity against Klebsiella pneumoniae assessed as zone of inhibition after 24 to 48 hrs by well diffusion method. Format: functional. (In agar diffusion tests the substance spreads into inoculated agar from a disc or well.)
The subject of a further assay is Streptococcus pyogenes. The assay is described as follows: Antibacterial activity against Streptococcus pyogenes assessed as zone of inhibition after 24 to 48 hrs by well diffusion method. Format: functional.
In assay [10] the test system is Staphylococcus epidermidis. The assay is described as follows: Antibacterial activity against Staphylococcus epidermidis assessed as zone of inhibition after 24 to 48 hrs by well diffusion method. Format: functional.
The test system of another assay is Staphylococcus aureus. The assay is described as follows: Antibacterial activity against Staphylococcus aureus assessed as zone of inhibition after 24 to 48 hrs by well diffusion method. Format: functional.
Assay [11] deals with Serratia marcescens. Nature of the assay: Antibacterial activity against Serratia marcescens assessed as zone of inhibition after 24 to 48 hrs by well diffusion method. Format: functional.
Assay [12] has as its system Pseudomonas aeruginosa. Nature of the assay: Antibacterial activity against Pseudomonas aeruginosa assessed as zone of inhibition after 24 to 48 hrs by well diffusion method. Format: functional.
In assay [13] the test system is Escherichia coli. The assay is described as follows: Antibacterial activity against Escherichia coli assessed as zone of inhibition after 24 to 48 hrs by well diffusion method. Format: functional.
Assay [14] has as its system Klebsiella pneumoniae. Nature of the assay: Antibacterial activity against Klebsiella pneumoniae assessed as zone of inhibition by measuring activity index after 24 to 48 hrs by well diffusion method relative to tetracycline. Format: functional, organism-based.
The subject of assay [15] is Klebsiella pneumoniae. Nature of the assay: Antibacterial activity against Klebsiella pneumoniae assessed as zone of inhibition by measuring activity index after 24 to 48 hrs by well diffusion method relative to ampicillin. Format: functional, organism-based.
The test system of assay [16] is Klebsiella pneumoniae. The assay is described as follows: Antibacterial activity against Klebsiella pneumoniae assessed as zone of inhibition by measuring activity index after 24 to 48 hrs by well diffusion method relative to amoxicillin. Format: functional, organism-based.
The subject of assay [17] is Staphylococcus epidermidis. The assay is described as follows: Antibacterial activity against Staphylococcus epidermidis assessed as zone of inhibition by measuring activity index after 24 to 48 hrs by well diffusion method relative to tetracycline. Format: functional, organism-based.
Assay [18] relates to Staphylococcus epidermidis. The assay is described as follows: Antibacterial activity against Staphylococcus epidermidis assessed as zone of inhibition by measuring activity index after 24 to 48 hrs by well diffusion method relative to amoxicillin. Format: functional, organism-based.
In assay [19] the test system is Serratia marcescens. Nature of the assay: Antibacterial activity against Serratia marcescens assessed as zone of inhibition by measuring activity index after 24 to 48 hrs by well diffusion method relative to penicillin G. Format: functional.
Assay [20] concerns Serratia marcescens. Nature of the assay: Antibacterial activity against Serratia marcescens assessed as zone of inhibition by measuring activity index after 24 to 48 hrs by well diffusion method relative to ampicillin. Format: functional.
Assay [21] relates to Serratia marcescens. The assay is described as follows: Antibacterial activity against Serratia marcescens assessed as zone of inhibition by measuring activity index after 24 to 48 hrs by well diffusion method relative to amoxicillin. Format: functional.
The test system of assay [22] is Pseudomonas aeruginosa. Nature of the assay: Antibacterial activity against Pseudomonas aeruginosa assessed as zone of inhibition by measuring activity index after 24 to 48 hrs by well diffusion method relative to ampicillin. Format: functional, organism-based.
The test system of assay [23] is Escherichia coli. The assay is described as follows: Antibacterial activity against Escherichia coli assessed as zone of inhibition by measuring activity index after 24 to 48 hrs by well diffusion method relative to tetracycline. Format: functional.
For assay [24], the system named is NCI-H157. Nature of the assay: Cytotoxicity against human NCI-H157 cells after 48 hrs by sulforhodamine B assay. Format: functional, cell-based.
For assay [25], the system named is Pseudomonas aeruginosa. Nature of the assay: Antibacterial activity against Pseudomonas aeruginosa assessed as zone of inhibition by measuring activity index after 24 to 48 hrs by well diffusion method relative to tetracycline. Format: functional, organism-based.
Assay [26] concerns Pseudomonas aeruginosa. Nature of the assay: Antibacterial activity against Pseudomonas aeruginosa assessed as zone of inhibition by measuring activity index after 24 to 48 hrs by well diffusion method relative to penicillin G. Format: functional, organism-based.
Assay [27] concerns Pseudomonas aeruginosa. The assay is described as follows: Antibacterial activity against Pseudomonas aeruginosa assessed as zone of inhibition by measuring activity index after 24 to 48 hrs by well diffusion method relative to amoxicillin. Format: functional, organism-based.

Activity calls are given as the source filed them. The rule behind the calls is not given here.

Regarding “Dibutylstannanediyl bis 2-(4-methoxy-2-nitrophenylcarbamoyl)benzoate”, the Activity in the assay on NCI-H157 [1] was found to be 55.5%; in the assay on NCI-H157 [2], 52.6%; with NCI-H157 [3], 47.4%; in the assay on NCI-H157 [4] it was 43.9%; in the assay with Leishmania major [5] it was 54.2%; in the assay on Leishmania major [6], 50.6%. Also, the Activity in the assay with Leishmania major [7] is 49.6%; in the assay with Leishmania major [8] it was 47.6%; in the assay on NCI-H157 [24], “Dose-dependent effect”. For the same compound, the inhibition zone (IZ) in the assay with Klebsiella pneumoniae [9] was 26 mm; with Streptococcus pyogenes, 6 mm; in assay [10] it was 15 mm; with Staphylococcus aureus it was 24 mm; in the assay with Serratia marcescens [11] it was 18.3 mm; in the assay with Escherichia coli [13], 19.3 mm. In addition, the “inhibition zone (IZ)” value with Pseudomonas aeruginosa [12] was “inactive”. For the same compound, the Activity index stood at 1.88 with Klebsiella pneumoniae [14]; 4.34 with Klebsiella pneumoniae [15]; 4.34 in the assay with Klebsiella pneumoniae [16]; 1.5 in [17]; 7.5 in assay [18]; 2.29 in the assay with Serratia marcescens [19]. For the same compound, the Activity index in the assay on Serratia marcescens [20] came out at 2.29; in the assay with Serratia marcescens [21], 3.05; with Escherichia coli [23], 9.67. Moreover, the Activity_index result with Pseudomonas aeruginosa [22] was “inactive”.

With `CC1(C)S[C@@H]2[C@H](NC(=O)Cc3ccccc3)C(=O)N2[C@H]1C(=O)O` [PENICILLIN G], the “inhibition zone (IZ)” value with Klebsiella pneumoniae [9] stood at 0 mm; in the assay on Streptococcus pyogenes it was 0 mm; in assay [10] it was 0 mm; with Staphylococcus aureus, 0 mm; with Serratia marcescens [11], 8 mm; with Pseudomonas aeruginosa [12] it was 6 mm. Besides, the “inhibition zone (IZ)” value in the assay with Escherichia coli [13] came out at 0 mm.

Turning to `CC1(C)S[C@@H]2[C@H](NC(=O)[C@H](N)c3ccccc3)C(=O)N2[C@H]1C(=O)O` [AMPICILLIN], the “inhibition zone (IZ)” value in the assay on Klebsiella pneumoniae [9] was 6 mm; with Streptococcus pyogenes it was 0 mm; in assay [10] it was 0 mm; in the assay on Staphylococcus aureus it was 0 mm; with Serratia marcescens [11] it was 8 mm; with Pseudomonas aeruginosa [12] it was 0 mm. For the same compound, the “inhibition zone (IZ)” value in the assay with Escherichia coli [13] was 0 mm.

“Dibenzylstannanediyl bis 2-(4-methoxy-2-nitrophenylcarbamoyl)benzoate”: the Activity in the assay on NCI-H157 [1] came out at 74.5%; in the assay with NCI-H157 [2], 71.3%; in the assay on NCI-H157 [3] it was 67.4%; with NCI-H157 [4], 62.7%; in the assay with Leishmania major [5], 72.4%; in the assay with Leishmania major [6], 66.3%. The Activity in the assay with Leishmania major [7] was 62.5%; with Leishmania major [8] it was 60.9%; in the assay on NCI-H157 [24], “Dose-dependent effect”. Besides, the inhibition zone (IZ) came out at 15 mm with Klebsiella pneumoniae [9]; 10.7 mm in the assay on Streptococcus pyogenes; 11 mm in assay [10]; 10.7 mm in the assay on Staphylococcus aureus; 7.66 mm with Serratia marcescens [11]; 14.3 mm in the assay on Pseudomonas aeruginosa [12]. For the same compound, the inhibition zone (IZ) in the assay with Escherichia coli [13] came out at 9 mm. The Activity index was 1.07 in the assay with Klebsiella pneumoniae [14]; 2.5 in the assay with Klebsiella pneumoniae [15]; 2.5 in the assay on Klebsiella pneumoniae [16]; 1.1 in [17]; 5.5 in [18]; 0.96 with Serratia marcescens [19]. Also, the Activity index came out at 0.96 in the assay with Serratia marcescens [20]; 1.28 in the assay on Serratia marcescens [21]; 2.39 with Pseudomonas aeruginosa [25]; 2.39 with Pseudomonas aeruginosa [26]; 2.39 in the assay with Pseudomonas aeruginosa [27]; 4.5 in the assay with Escherichia coli [23].

As for `CC1(C)S[C@@H]2[C@H](NC(=O)[C@H](N)c3ccc(O)cc3)C(=O)N2[C@H]1C(=O)O` [AMOXICILLIN], the “inhibition zone (IZ)” value in the assay with Klebsiella pneumoniae [9] was 6 mm; in the assay with Streptococcus pyogenes, 0 mm; in assay [10] it was 2 mm; in the assay with Staphylococcus aureus, 0 mm; with Serratia marcescens [11], 6 mm; in the assay on Pseudomonas aeruginosa [12] it was 6 mm. In addition, the “inhibition zone (IZ)” value with Escherichia coli [13] is on record as 0 mm.

Consider `C[C@@H]1[C@H](O)[C@@H](C)/C=C/C=C/C=C/C=C/C=C/C=C/C=C/[C@H](O[C@@H]2O[C@H](C)[C@@H](O)[C@H](N)[C@@H]2O)C[C@@H]2O[C@](O)(C[C@@H](O)C[C@@H](O)[C@H](O)CC[C@@H](O)C[C@@H](O)CC(=O)O[C@H]1C)C[C@H](O)[C@H]2C(=O)O` [AMPHOTERICIN B], for which the Activity in the assay on Leishmania major [5] was 79.8%; in the assay on Leishmania major [6], 76.3%; in the assay on Leishmania major [7], 74.8%; in the assay on Leishmania major [8], 69.9%.

“Triphenylstannyl 2-(4-methoxy-2-nitrophenylcarbamoyl)benzoate”: the Activity in the assay with NCI-H157 [1] was found to be 61.7%; with NCI-H157 [2], 58.4%; with NCI-H157 [3], 55.7%; in the assay on NCI-H157 [4], 52.3%; in the assay with Leishmania major [5] it was 64.3%; with Leishmania major [6], 59.4%. The Activity in the assay with Leishmania major [7] is 53.6%; in the assay on Leishmania major [8], 50.7%; in the assay on NCI-H157 [24], “Dose-dependent effect”. Also, the inhibition zone (IZ) in the assay with Klebsiella pneumoniae [9] turned out to be 20.2 mm; in the assay with Streptococcus pyogenes, 11.7 mm; in [10] it was 19 mm; in the assay on Staphylococcus aureus it was 4.66 mm; with Serratia marcescens [11], 4.66 mm; in the assay on Pseudomonas aeruginosa [12], 22.7 mm. The inhibition zone (IZ) with Escherichia coli [13] worked out at 11 mm. In addition, the Activity index in the assay with Klebsiella pneumoniae [14] worked out at 1.44; in the assay on Klebsiella pneumoniae [15], 3.37; in the assay on Klebsiella pneumoniae [16], 3.37; in assay [17], 1.9; in assay [18], 9.5; with Serratia marcescens [19], 0.58. In addition, the Activity index worked out at 0.58 in the assay on Serratia marcescens [20]; 0.78 in the assay with Serratia marcescens [21]; 3.78 with Pseudomonas aeruginosa [25]; 3.78 in the assay with Pseudomonas aeruginosa [26]; 3.78 with Pseudomonas aeruginosa [27]; 5.5 with Escherichia coli [23].

For the compound `CN(C)[C@@H]1C(O)=C(C(N)=O)C(=O)[C@@]2(O)C(O)=C3C(=O)c4c(O)cccc4[C@@](C)(O)[C@H]3C[C@@H]12` [TETRACYCLINE], the “inhibition zone (IZ)” value turned out to be 14 mm in the assay on Klebsiella pneumoniae [9]; 0 mm in the assay with Streptococcus pyogenes; 10 mm in [10]; 0 mm in the assay on Staphylococcus aureus; 0 mm in the assay on Serratia marcescens [11]; 6 mm in the assay with Pseudomonas aeruginosa [12]. Moreover, in the assay on Escherichia coli [13], the “inhibition zone (IZ)” value stood at 2 mm.
